Series [1] deals with Cln3^Δex7-8 mice. Nature of the series: Microglial activation, CD68 immunohistochemistry in brain sections. The format is in vivo, mouse. To be noted: analyzed regions VPM/VPL, DLG, S1BF, V1 (FIG. 2A-D). How it is done: (§1) Cln3^Δex7-8 mice were obtained from the Jackson Laboratory. Control (C57BL/6J) and Cln3^Δex7-8 mice were housed 3-4 per cage in a room with a 12-h light/12-h dark cycle. Food and water were provided ad libitum. All mice used in this study were analyzed at 8 and 12 months of age and were littermates produced by crossing heterozygous Cln3^Δex7-8 mice. Only males were used for this analysis. Investigators were blinded when analyzing the data, and no randomization was necessary.
(§2) For oral administration, Trehalose was dissolved in drinking water to a final concentration of 2% and changed twice a week. Trehalose-containing water was given to Cln3^Δex7-8 mice and WT mice by spontaneous oral administration starting at 21 days of age and continuing until the day the mice were sacrificed for neuropathology studies.
(§3) Miglustat was administered in mixture with the food pellet starting at 21 days of age and continuing until the day the mice were sacrificed for neuropathology studies. Miglustat food was prepared by TestDiet using the 5V5R rodent diet (LabDiet). Two concentrations were used: 1.2 g/Kg chow (indicated as “low concentration”) and 7.2 g/Kg chow (indicated as “high concentration”) and two separate groups of Cln3^Δex7-8 mice were fed with either diet. One additional group of Cln3^Δex7-8 l mice was fed with a combination of the low-concentration Miglustat food and 2% Trehalose water.
(§4) Twelve-month-old homozygous Cln3^Δex7-8 mice and age-matched controls (WT mice) were anaesthetized with isoflurane and transcardially perfused with PBS followed by 4% buffered paraformaldehyde in 0.1 M sodium phosphate buffer, pH 7.4. Brains were subsequently removed and postfixed overnight. Before sectioning, the brains were cryoprotected in a solution containing 30% sucrose in Tris-buffered saline (TBS: 50 mM Tris, pH 7.6). Consecutive 40 μm floating coronal sections were collected in 96-well plates. Series of sections were then stained with primary antisera against CD68 (AbD
(§5) Serotec, Cat. No. MCA1957), GFAP (DAKO, Cat. No. Z0334), Subunit C of mitochondrial ATP synthase (SCMAS; Abcam, Cat. No. ab181243), or cleaved caspase 3 (Asp175) (Cell Signaling, Cat. No. 9661S) followed by either rabbit anti-rat (VectorLab) or swine anti-rabbit (DAKO) secondary antibodies, and immunoreactivity detected with Vectastain ABC (avidin-biotin) kit (Vector) and diaminobenzidine as a chromogen.
Non-overlapping images were captured, on three consecutive sections, through each region of interest. All RGB images were captured via a live video camera (JVC, 3CCD, KY-F55B), mounted onto a Zeiss Axioplan microscope using a x 40 objective and saved as JPEGs. All parameters including lamp intensity, video camera set-up and calibration were maintained constant throughout image capturing. For quantification of storage and inflammation, images were analyzed using ImageJ analysis software (NIH), using an appropriate threshold that selected the foreground immunoreactivity above background. This threshold was then applied as a constant to all subsequent images analyzed per batch of animals and reagent used to determine the specific area of immunoreactivity for each antigen in each region. […] For quantification of cell death, images were analyzed manually and scored for the presence of apoptotic nuclei. […]
(S1BF), the primary visual (V1) cortex, and the dorsolateral geniculate (DLG) (Pontikis et al., 2005). To quantify microglial activation, antibodies against the microglial marker CD68 were used. […]

Series [2] deals with Cln3^Δex7-8 mice. Nature of the series: Astrocytosis, GFAP immunohistochemistry in brain sections. Format: in vivo, mouse. How it is done:
as §1, §2, §3, §4, §5
Non-overlapping images were captured, on three consecutive sections, through each region of interest. All RGB images were captured via a live video camera (JVC, 3CCD, KY-F55B), mounted onto a Zeiss Axioplan microscope using a x 40 objective and saved as JPEGs. All parameters including lamp intensity, video camera set-up and calibration were maintained constant throughout image capturing. For quantification of storage and inflammation, images were analyzed using ImageJ analysis software (NIH), using an appropriate threshold that selected the foreground immunoreactivity above background. This threshold was then applied as a constant to all subsequent images analyzed per batch of animals and reagent used to determine the specific area of immunoreactivity for each antigen in each region. Data were plotted graphically as the mean percentage area of immunoreactivity per field ±s.e.m. for each region. For quantification of cell death, images were analyzed manually and scored for the presence of apoptotic nuclei. Data were plotted graphically as the mean number of apoptotic cells per field ±s.e.m. for each region. All analyses were performed blind to genotype and treatment.
[…] was also quantified by performing immunohistochemistry staining of brain sections of all test and control mice using anti-GFAP antibodies.

The test system of series [3] is Cln3^Δex7-8 mice. In words: Lysosomal storage in cerebellum (SCMAS staining). The format is in vivo, mouse. The following applies: 12 months of age. As for the experimental part:
as §1
For oral administration, Trehalose was dissolved in drinking water to a final concentration of 2% and changed twice a week. […]
as §5
Non-overlapping images were captured, on three consecutive sections, through each region of interest. […] For quantification of storage and inflammation, images were analyzed using ImageJ analysis software (NIH), using an appropriate threshold that selected the foreground immunoreactivity above background. […]

Series [4] is described as follows: Blood PK of Trehalose after IV and PO administration, with and without PO Miglustat (LC-MS/MS). The format is in vivo, mouse. The following applies: for Cmax / Tmax / AUC(0-inf): male, C57BL6/N, mouse, whole blood; for AUC(0-inf): read-out: AUC0-inf of Trehalose in blood (converted). As for the experimental part:
LC-MS/MS bioanalytical methodologies were developed for the analysis of Trehalose, Miglustat and glucose in mouse whole blood and brain.
Blood samples were prepared as follows; 20 μL of whole blood was transferred to a 96 wellplate and diluted 1:1 with sterile distilled water. Samples were protein precipitated by addition of 160 μL of 2.5% of trichloroacetic acid (TCA). At the time of analysis, 1 volume of acetonitrile containing an internal standard was added in order to match the initial chromatography conditions, samples were centrifuged at 4350 rpm for 10 min at ambient temperature, and the resultant supernatant transferred for analysis on the LC-MS/MS.
The purpose of this example was to compare the blood PK of unlabelled high doses of Trehalose after IV and PO administration, with and without Miglustat PO dosing. For the IV comparison, Trehalose was dosed as an IV bolus dose 15 min after PO dosing of Miglustat. For the PO comparison Miglustat was dosed simultaneously with Trehalose. Fasted male C57BL6/N mice were dosed as detailed in Table III:
Blood samples were collected at pre-dose, 10, 20, 30, 60, 120 and 180 min post-dose for group 1 and 2 and at pre-dose, 15, 30, 45, 60, 120 and 180 min post-dose for group 3 and 4.

For series [5] the following is noted: at 20° C.; cited from earlier work.
Setting [6] is: 1 g/kg trehalose IV + 150 mg/kg miglustat PO.
Where [7] appears, read: 10 g/kg trehalose PO + 150 mg/kg miglustat PO.

The source of these data is patent US20230321064A1, “Products for Treating the JNCL Disease” (Beyond Batten Disease Foundation, priority 2020, published 2023).

Where two headings read alike, the source gives them in different places.

In the case of `OC[C@H]1O[C@H](O[C@H]2O[C@H](CO)[C@@H](O)[C@H](O)[C@H]2O)[C@H](O)[C@@H](O)[C@@H]1O` [Trehalose, α-D-glucopyranosyl α-D-glucopyranoside dihydrate], in the series on Cln3^Δex7-8 mice [1], the “microglial activation (CD68)” value is “partially mitigated”. Further, the “astroglial activation (GFAP staining) in the VPM/VPL region” value in the series with Cln3^Δex7-8 mice [2] (12 months of age, oral, Miglustat even at low doses (FIG. 3E)) was “partially prevented”. The “astrocytosis (GFAP immunoreactivity) in the VPM/VPL” value in the series on Cln3^Δex7-8 mice [2] (FIG. 3A) is on record as “did not have any observable effects”. The “astrocytosis (GFAP immunoreactivity) in the DLG” value with Cln3^Δex7-8 mice [2] (FIG. 3B) was “prevented astrocytosis”. For the same molecule, the “increased storage in the cerebellum (SCMAS staining)” value with Cln3^Δex7-8 mice [3] is on record as “partially reduces this increased storage”. Besides, the “Trehalose fold-change with miglustat dosing” value in series [4] (1 g/kg trehalose IV + 150 mg/kg miglustat PO vs 1 g/kg IV alone) was determined as 1.5. The “increase of measured AUC of Trehalose by combined PO Miglustat” value in series [4] (Trehalose via either IV or PO administration) was greater than 1.5 fold. Besides, the “detection of Trehalose after oral administration” value in series [4] (low doses such as 1 g/kg, oral) is given as “cannot be detected”. Besides, in series [4] (1 g/kg trehalose IV), the Cmax came to 3690 ± 153 µM, the time of peak concentration (Tmax) is 20 min and the AUC(0-inf) was 1960 µM·h. Besides, in series [4] (setting [6]), the Cmax turned out to be 5490 ± 873 µM, the Tmax is 20 min and the AUC(0-inf) is 2990 µM·h. In series [4] (setting [7]), the Cmax was determined as 189 ± 43.9 µM, the time to peak (Tmax) is 15 min and the AUC(0-inf) was 307 µM·h. In addition, in series [5], the Solubility result is “Trehalose: 68.9 g/100 g H2O at 20 °C”.

In general, Cmax refers to the highest concentration seen after dosing. As a reminder, the Tmax is the time from dosing to the highest level.
